The values below come from US20100298286A1, “Organic Compounds” (NOVARTIS AG, priority 2007, published 2010).

What all share (format): biochemical
In one test the target is T1, PI3Kdelta (Homo sapiens, UniProt O00329).
T1 construct: for the full-length p110δ subunit were generated and fused by overlapping PCR; His tag (C); made in house; host or cells: baculovirus / Tn5 insect cells
Description: PI3K KinaseGlo assay, PI3Kdelta. The following applies: 1 μM ATP, 10 nM enzyme, 30 mins. Background: Kinase-Glo measures the ATP left after a reaction by luminescence.

The target in a further test is T2, PI3Kalpha (Homo sapiens, UniProt P42336).
T2 construct: His6 (C); made in house; host or cells: baculovirus / Tn5 insect cells
T2 sequence (P42336 with tags, fused parts or gaps): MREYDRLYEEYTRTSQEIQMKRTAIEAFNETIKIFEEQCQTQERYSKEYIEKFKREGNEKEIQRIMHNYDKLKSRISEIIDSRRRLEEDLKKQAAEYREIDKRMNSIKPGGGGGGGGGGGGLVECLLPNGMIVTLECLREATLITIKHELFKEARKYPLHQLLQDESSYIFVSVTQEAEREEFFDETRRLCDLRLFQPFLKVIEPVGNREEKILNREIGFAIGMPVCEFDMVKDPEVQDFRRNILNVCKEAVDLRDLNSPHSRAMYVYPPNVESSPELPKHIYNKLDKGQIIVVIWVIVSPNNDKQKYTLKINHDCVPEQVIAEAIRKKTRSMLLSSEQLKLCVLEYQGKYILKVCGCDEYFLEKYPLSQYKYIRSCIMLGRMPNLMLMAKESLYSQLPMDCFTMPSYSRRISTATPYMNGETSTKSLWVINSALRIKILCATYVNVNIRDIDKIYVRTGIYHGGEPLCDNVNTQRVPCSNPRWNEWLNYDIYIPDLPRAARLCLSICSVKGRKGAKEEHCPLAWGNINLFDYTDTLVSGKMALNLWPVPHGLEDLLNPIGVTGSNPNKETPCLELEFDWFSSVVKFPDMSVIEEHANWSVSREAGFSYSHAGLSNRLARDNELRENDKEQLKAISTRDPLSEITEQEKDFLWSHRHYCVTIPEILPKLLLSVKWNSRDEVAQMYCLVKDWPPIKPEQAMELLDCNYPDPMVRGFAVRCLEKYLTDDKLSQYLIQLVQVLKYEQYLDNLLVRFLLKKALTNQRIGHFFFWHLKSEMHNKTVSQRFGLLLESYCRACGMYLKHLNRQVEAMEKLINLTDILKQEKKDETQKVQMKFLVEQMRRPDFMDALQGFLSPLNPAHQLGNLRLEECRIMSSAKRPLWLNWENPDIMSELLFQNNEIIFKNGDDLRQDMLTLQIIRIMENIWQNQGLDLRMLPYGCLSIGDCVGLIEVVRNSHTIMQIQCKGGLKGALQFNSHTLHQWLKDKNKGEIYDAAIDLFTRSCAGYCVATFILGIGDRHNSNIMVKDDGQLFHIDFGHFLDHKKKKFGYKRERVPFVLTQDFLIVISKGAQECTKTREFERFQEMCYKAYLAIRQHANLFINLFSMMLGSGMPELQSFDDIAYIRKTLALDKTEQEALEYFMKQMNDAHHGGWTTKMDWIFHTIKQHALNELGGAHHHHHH
Description: PI3K KinaseGlo assay, PI3Kalpha. The conditions noted are these: 1 μM ATP, 10 nM enzyme, 30 mins.

Another test addresses T3, PI3Kbeta (Homo sapiens, UniProt P42338).
T3 construct: p85α iSH2 domain (fusion partner); His tag (C); made in house; host or cells: baculovirus / Tn5 insect cells
Briefly: PI3K KinaseGlo assay, PI3Kbeta. The conditions noted are these: 1 μM ATP, 25 nM enzyme, 30 mins.

The target of a further test is T4, PI3Kgamma (Homo sapiens, UniProt P48736, Q459R).
T4 construct: Constructs lacking the N-terminal 144 aa; His6 (C); made in house; host or cells: Tn5 insect cells; construct from Roger Williams lab (MRC LMB)
T4 sequence (P48736 with tags, fused parts or gaps Q459R): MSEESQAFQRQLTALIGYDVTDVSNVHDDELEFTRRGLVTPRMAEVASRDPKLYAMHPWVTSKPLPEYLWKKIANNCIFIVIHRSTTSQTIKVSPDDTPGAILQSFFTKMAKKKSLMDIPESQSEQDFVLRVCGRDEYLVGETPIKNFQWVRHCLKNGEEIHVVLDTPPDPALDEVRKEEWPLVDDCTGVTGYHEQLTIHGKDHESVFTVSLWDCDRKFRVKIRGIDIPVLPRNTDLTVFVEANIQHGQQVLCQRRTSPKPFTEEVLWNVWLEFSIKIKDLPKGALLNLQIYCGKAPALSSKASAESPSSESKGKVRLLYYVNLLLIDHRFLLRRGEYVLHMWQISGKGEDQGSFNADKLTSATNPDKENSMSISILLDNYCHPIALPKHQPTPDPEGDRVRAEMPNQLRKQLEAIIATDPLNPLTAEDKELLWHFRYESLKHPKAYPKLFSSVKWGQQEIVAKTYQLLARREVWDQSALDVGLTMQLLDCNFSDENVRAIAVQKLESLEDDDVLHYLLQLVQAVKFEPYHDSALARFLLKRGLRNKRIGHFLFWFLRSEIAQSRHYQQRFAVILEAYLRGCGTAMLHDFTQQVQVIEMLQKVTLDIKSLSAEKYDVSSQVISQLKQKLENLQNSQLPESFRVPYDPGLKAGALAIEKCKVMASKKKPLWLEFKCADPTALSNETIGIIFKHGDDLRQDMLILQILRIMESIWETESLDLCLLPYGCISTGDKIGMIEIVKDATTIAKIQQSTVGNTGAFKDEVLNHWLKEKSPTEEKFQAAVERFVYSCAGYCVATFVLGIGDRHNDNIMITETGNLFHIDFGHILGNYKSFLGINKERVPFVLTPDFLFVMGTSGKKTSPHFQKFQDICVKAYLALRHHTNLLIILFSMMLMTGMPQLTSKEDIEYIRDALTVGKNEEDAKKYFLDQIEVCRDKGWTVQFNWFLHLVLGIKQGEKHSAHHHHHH
Description: PI3K KinaseGlo assay, PI3Kgamma. The following applies: 1 μM ATP, 150 nM enzyme, 90 mins. How it is done: PI3K KinaseGlo assay: […] of compound dilutions were dispensed onto black 384-well low volume Non Binding Styrene (NBS) plates (Costar Cat. No. NBS#3676). L-a-phosphatidylinositol (PI), provided as 10 mg/ml solution in methanol, was transferred into a glass tube and dried under nitrogen beam. It was then resuspended in 3% OctylGlucoside (OG) by vortexing and stored at 4° C. The KinaseGlo Luminescent Kinase Assay (Promega, Madison/WI, USA) is a homogeneous HTS method of measuring kinase activity by quantifying the amount of ATP remaining in solution following a kinase reaction.
5 μL of a mix of PI/OG with the PI3K subtype were added (Table 1). Kinase reactions were started by addition of 5 μl of ATP-mix containing in a final volume 10 μL 10 mM TRIS-HCl pH 7.5, 3 mM MgCl2, 50 mM NaCl, 0.05% CHAPS, 1 mM DTT and 1 μM ATP, and occurred at room temperature. Reactions were stopped with 10 μl of KinaseGlo and plates were read 10 mins later in a Synergy2 reader using an integration time of 0.1 seconds per well. […] The standard was used as a reference compound and included in all assay plates in the form of 16 dilution points in duplicate.
The PI3Kα, PI3Kβ and PI3Kδ constructs are fusion of p85α iSH2 domain and the respective p110 isoforms. The p85α fragment and p110 isoform genes were generated by PCR from first strand cDNA generated by RT-PCR from commercial RNA from placenta, testis and brain as described below. […]
The lysate was centrifuged at 45,000 g for 30 minutes, and the supernatant was loaded onto a pre-equilibrated IMAC column (3 mL resin/100 mL lysate). […] Pertinent fractions were analyzed by SDS-PAGE and pooled accordingly. […] Pertinent fractions were analyzed by SDS-PAGE and pooled accordingly. […]

T3 sequence (P42338 with tags, fused parts or gaps limits assumed): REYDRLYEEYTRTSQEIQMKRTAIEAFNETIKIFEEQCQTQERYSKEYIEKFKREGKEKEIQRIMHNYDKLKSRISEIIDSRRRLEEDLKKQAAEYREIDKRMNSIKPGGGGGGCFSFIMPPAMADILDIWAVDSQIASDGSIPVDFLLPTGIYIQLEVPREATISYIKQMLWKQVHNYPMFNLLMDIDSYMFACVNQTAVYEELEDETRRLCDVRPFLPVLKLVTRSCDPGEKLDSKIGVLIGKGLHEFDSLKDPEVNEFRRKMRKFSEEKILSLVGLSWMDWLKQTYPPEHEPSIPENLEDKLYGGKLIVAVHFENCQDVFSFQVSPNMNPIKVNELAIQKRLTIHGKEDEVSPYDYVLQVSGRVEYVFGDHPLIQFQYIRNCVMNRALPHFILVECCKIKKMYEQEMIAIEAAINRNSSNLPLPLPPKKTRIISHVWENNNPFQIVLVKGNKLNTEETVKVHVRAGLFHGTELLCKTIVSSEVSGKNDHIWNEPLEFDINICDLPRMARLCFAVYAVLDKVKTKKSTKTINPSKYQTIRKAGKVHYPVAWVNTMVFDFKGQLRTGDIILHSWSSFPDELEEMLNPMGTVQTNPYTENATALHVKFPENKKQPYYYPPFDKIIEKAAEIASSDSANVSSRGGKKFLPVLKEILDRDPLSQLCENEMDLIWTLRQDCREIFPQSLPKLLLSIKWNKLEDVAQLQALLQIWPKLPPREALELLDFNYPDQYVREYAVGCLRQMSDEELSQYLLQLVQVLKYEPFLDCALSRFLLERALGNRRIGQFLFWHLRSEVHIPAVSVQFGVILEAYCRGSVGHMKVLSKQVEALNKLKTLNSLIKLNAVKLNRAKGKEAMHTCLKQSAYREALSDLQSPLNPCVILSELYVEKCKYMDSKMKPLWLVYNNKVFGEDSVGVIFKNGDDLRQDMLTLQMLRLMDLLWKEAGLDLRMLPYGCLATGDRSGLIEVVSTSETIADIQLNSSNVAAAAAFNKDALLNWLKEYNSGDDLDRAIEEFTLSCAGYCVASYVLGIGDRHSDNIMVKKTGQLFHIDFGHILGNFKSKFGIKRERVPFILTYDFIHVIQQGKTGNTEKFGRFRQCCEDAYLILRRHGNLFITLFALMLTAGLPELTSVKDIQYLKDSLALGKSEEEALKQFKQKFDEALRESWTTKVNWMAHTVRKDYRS
T1 sequence (O00329 with tags, fused parts or gaps): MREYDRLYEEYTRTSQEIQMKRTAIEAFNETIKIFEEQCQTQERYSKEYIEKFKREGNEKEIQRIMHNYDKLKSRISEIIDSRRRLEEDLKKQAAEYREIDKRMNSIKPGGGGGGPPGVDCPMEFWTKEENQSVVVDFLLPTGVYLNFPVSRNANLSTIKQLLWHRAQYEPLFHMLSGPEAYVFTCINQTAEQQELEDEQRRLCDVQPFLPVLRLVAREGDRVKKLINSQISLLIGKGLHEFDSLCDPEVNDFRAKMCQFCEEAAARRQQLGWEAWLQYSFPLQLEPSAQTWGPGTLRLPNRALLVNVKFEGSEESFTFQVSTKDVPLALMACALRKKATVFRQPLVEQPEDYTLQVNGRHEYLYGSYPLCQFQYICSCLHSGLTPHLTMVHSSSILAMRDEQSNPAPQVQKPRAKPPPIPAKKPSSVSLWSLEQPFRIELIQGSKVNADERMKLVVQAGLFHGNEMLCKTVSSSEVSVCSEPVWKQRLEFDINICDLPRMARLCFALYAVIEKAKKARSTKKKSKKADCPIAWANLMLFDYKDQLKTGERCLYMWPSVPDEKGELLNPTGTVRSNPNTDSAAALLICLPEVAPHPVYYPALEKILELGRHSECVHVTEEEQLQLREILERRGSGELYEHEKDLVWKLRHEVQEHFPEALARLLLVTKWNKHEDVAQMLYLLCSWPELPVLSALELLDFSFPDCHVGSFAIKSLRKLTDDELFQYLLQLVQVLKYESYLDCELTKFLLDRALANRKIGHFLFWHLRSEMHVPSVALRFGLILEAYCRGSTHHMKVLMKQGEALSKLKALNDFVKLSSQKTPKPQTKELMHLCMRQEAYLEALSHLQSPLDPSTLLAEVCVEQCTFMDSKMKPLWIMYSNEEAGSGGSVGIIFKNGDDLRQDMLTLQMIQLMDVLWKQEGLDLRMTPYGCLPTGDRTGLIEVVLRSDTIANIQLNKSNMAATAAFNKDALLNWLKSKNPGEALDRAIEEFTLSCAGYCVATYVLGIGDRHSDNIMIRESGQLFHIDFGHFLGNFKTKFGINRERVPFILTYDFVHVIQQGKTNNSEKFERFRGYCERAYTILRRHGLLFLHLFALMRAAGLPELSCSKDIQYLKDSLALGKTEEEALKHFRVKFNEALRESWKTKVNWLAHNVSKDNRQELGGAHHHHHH

For orientation: IC50 means the concentration needed to halve the response being measured. `Cc1nc(NC(=O)N2CCC[C@@]2(C)C(N)=O)sc1-c1csc(CC2CC2)n1` [Example 49, (S)-2-Methyl-pyrrolidine-1,2-dicarboxylic acid 2-amide 1-[(2-cyclopropylmethyl-4′-methyl-[4,5]bithiazolyl-2′-yl)-amide]]: the IC50 against PI3Kdelta is 1.26 µM; on PI3Kalpha, 0.078 µM; on PI3Kbeta, 0.885 µM; on PI3Kgamma it was 0.928 µM.
For `Cc1nc(NC(=O)N2CCC[C@H]2C(N)=O)sc1-c1csc(N2CC3CCC(CC3)C2)n1` [Example 23, (S)-Pyrrolidine-1,2-dicarboxylic acid 2-amide 1-{[2-(3-aza-bicyclo[3.2.2]non-3-yl)-4′-methyl-[4,5]bithiazolyl-2′-yl]-amide}] the same measures were 2.37 µM, 0.331 µM, 8.47 µM and 1.64 µM.
On the same counts, the results for `Cc1nc(NC(=O)N2CCC2C(N)=O)sc1-c1csc(C(C)(C)C)n1` (stereo not drawn) [Example 13, Azetidine-1,2-dicarboxylic acid 2-amide 1-[(2-tert-butyl-4′-methyl-[4,5]bithiazolyl-2′-yl)-amide]] are 0.622 µM, 0.054 µM, 6.86 µM and 2.51 µM.
